pIC50, pKi: −log10 of the molar value. Activity calls are given as the source filed them. No cut-off for these calls is given here.
Tests used:
[1] = Antioxidant activity assessed as AAPH radical scavenging activity preincubated for 15 mins measured every min for 80 mins by ORAC-FL assay relative to trolox; format: functional
[2] = target: T1, Nuclear factor erythroid 2-related factor 2 (Homo sapiens) (UniProt Q16236); assay: Activation of NRF2 in human AREc32 cells incubated for 24 hrs by luciferase reporter gene assay; format: cell-based
T1 sequence (whole entry): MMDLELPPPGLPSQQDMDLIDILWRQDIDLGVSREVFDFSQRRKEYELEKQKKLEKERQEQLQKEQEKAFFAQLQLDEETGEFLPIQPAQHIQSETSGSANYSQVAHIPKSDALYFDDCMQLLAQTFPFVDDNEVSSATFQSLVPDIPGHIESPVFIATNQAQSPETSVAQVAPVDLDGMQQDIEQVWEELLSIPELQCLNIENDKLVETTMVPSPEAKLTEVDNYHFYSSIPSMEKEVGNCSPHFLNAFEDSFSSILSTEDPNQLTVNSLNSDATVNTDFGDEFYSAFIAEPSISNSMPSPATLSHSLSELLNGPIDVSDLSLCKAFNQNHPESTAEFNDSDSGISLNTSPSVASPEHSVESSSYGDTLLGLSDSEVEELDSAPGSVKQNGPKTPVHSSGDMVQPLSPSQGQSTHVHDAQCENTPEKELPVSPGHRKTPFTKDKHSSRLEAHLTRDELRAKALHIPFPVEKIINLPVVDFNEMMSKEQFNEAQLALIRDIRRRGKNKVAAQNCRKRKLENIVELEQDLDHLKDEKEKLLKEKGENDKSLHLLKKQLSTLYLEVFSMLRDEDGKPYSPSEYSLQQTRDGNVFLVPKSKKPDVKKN

[3] = target: Kelch-like ECH-associated protein 1 (Homo sapiens) (UniProt Q14145); assay: Binding affinity to human recombinant Keap1 Kelch domain expressed in Escherichia coli BL21 (DE3) by SPR assay
[4] = target: T2, Melatonin receptor type 1A (Homo sapiens, UniProt P48039); assay: Displacement of [125l]-lodomelatonin from human MT1 receptor expressed in CHO cells incubated for 120 mins by scintillation counting analysis; format: cell-based
[5] = target: T3, Melatonin receptor type 1B (Homo sapiens, UniProt P49286); assay: Displacement of [125l]-lodomelatonin from human MT2 receptor expressed in CHO cells incubated for 120 mins by scintillation counting analysis; format: cell-based
T3 sequence (P49286 whole entry): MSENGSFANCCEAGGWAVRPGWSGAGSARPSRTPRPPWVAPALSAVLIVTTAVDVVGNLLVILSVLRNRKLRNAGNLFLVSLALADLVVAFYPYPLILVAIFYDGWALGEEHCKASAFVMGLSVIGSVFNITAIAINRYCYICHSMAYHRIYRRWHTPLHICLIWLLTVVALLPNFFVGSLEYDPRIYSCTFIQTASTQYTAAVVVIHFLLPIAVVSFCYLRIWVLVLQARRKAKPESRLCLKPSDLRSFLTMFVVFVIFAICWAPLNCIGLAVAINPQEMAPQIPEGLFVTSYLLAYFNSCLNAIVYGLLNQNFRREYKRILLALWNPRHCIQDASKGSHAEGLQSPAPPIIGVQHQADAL

[6] = target: T2, Melatonin receptor type 1A; assay: Displacement of [125l]-lodomelatonin from human MT1 receptor expressed in CHO cells incubated for 120 mins by scintillation counting analysis relative to control; format: cell-based
[7] = Displacement of [125l]-lodomelatonin from hamster brain cell QR2 incubated for 60 mins by scintillation counting analysis
[8] = target: T4, Amine oxidase [flavin-containing] B (Homo sapiens, UniProt P27338)
T4 sequence (P27338 whole entry): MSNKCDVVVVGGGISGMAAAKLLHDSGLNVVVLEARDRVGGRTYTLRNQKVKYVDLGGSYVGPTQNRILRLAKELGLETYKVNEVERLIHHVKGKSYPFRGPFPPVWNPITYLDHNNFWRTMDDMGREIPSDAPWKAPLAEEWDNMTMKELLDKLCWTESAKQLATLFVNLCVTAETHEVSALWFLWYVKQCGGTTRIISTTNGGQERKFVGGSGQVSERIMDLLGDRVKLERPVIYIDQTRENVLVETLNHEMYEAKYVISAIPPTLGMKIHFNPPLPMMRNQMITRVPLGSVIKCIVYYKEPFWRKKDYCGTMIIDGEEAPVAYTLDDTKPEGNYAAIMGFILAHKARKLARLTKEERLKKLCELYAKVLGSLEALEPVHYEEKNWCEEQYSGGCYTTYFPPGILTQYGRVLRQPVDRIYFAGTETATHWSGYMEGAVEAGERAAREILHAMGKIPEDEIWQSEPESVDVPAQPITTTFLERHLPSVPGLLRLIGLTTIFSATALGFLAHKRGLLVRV
Description: Inhibition of human MAO-B using p-tyramine as substrate by Amplex Red reagent based fluorescence analysis

[9] = target: T5, Polyunsaturated fatty acid 5-lipoxygenase (Homo sapiens, UniProt P09917); assay: Inhibition of human 5-Lipoxygenase using H2DCFDA as substrate preincubated for 5 mins and measured by Spectrophotometric assay
T5 sequence (P09917 whole entry): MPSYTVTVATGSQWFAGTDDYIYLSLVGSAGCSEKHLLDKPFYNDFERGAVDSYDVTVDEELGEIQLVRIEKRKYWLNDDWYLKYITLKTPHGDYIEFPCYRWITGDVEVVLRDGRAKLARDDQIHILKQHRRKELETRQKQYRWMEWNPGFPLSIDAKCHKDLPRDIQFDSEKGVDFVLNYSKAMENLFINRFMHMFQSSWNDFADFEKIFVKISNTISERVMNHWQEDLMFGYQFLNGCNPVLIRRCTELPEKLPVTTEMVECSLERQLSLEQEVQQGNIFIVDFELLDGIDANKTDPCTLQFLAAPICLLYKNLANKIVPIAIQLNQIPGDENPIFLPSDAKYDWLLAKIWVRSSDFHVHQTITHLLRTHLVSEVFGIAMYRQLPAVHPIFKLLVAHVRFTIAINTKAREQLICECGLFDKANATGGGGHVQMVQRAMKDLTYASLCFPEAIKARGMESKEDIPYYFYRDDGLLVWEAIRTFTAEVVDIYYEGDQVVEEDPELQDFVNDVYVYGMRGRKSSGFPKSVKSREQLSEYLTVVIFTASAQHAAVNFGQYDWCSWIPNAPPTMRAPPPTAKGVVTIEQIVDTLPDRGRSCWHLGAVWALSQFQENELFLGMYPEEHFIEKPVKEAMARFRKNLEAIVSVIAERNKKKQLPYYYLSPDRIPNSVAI

[10] = target: T6, Amine oxidase [flavin-containing] A (Homo sapiens, UniProt P21397)
T6 sequence (P21397 whole entry): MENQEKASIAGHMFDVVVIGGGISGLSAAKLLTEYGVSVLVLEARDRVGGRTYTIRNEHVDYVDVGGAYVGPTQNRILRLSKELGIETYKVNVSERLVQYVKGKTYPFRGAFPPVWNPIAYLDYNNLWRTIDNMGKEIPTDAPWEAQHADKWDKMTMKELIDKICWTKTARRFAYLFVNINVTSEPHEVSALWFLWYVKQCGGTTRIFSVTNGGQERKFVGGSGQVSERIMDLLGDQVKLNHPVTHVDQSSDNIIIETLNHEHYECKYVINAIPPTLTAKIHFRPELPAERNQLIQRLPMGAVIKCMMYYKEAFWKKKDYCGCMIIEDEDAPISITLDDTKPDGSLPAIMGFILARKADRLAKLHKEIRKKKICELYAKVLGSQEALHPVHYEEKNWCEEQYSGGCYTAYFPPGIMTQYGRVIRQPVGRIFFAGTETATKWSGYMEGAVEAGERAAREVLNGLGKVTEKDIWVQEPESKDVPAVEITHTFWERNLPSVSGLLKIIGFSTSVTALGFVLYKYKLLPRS
Description: Inhibition of human MAO-A using p-tyramine as substrate by Amplex Red reagent based fluorescence analysis

Cricetinae = assay: Displacement of [125l]-lodomelatonin from hamster brain cell QR2 at 100 nM incubated for 60 mins by scintillation counting analysis relative to control; format: tissue-based
[11] = Permeability of compound by PAMPA-BBB assay

Sequence of Kelch-like ECH-associated protein 1 (Homo sapiens) (Q14145 whole entry, the tested form may be a part): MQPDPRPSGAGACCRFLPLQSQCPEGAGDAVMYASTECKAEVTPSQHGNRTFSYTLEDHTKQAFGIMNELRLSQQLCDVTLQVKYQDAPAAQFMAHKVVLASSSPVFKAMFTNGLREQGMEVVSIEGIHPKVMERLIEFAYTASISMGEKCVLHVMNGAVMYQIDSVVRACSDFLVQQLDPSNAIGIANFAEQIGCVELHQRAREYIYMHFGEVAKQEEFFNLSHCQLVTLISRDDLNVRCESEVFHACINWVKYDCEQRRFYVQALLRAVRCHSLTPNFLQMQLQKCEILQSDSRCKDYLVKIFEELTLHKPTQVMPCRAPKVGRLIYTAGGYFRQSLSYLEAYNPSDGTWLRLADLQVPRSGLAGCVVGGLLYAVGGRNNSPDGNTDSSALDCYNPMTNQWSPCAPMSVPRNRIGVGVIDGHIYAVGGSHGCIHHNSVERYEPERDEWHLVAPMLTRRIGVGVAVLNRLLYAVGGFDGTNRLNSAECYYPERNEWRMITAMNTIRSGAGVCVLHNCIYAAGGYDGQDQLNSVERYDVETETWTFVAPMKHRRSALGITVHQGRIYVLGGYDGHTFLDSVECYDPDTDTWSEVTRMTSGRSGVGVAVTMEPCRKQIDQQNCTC
T2 sequence (P48039 whole entry): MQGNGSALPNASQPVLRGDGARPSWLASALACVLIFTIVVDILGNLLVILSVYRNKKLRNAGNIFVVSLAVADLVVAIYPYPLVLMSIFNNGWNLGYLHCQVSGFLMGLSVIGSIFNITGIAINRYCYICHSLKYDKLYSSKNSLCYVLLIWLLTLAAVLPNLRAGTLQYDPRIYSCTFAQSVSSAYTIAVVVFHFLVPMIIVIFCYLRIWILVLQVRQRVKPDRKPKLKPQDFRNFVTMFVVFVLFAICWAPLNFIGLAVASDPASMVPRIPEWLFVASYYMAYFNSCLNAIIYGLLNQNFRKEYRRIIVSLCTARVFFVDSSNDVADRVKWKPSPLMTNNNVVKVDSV

CCCCCCn1nc(CCc2c[nH]c3ccc(OC)cc23)oc1=O
Activity [1]: 3 equiv

COc1ccc2cccc(/C=C/c3n[nH]c(=O)o3)c2c1
CD [2]: > 30 µM

COc1ccc2[nH]cc(/C=C/c3n[nH]c(=O)o3)c2c1
CD [2]: > 60 µM | Activity [3]: Active

COc1cc2cccc(/C=C/c3n[nH]c(=O)o3)c2cc1OC
pKi [4]: < 6.00 | pKi [5]: 7.16 | Activity [1]: < 0.1 equiv | CD [2]: > 30 µM | Activity [3]: inactive | inhibition [6]: 63%

CNc1nnc(CCc2c[nH]c3ccc(OC)cc23)o1
pKi [4]: 6.26 | pKi [5]: 6.96 | pKi [7]: 6.48 | Activity [1]: 1.8 equiv | pIC50 [8]: 4.43 | pIC50 [9]: 4.22 | pIC50 [10]: < 4.30

CCCn1nc(CCc2c[nH]c3ccc(OC)cc23)oc1=O
Activity ([2]; filed as activator): 2.3 equiv | Activity [3]: inactive

C#CCn1nc(/C=C/c2c[nH]c3ccc(OC)cc23)oc1=O
CD ([2]; filed as activator): 15.1 µM | Activity [3]: Active

C[S+]([O-])CCCCN=C=S (centres undefined)
CD ([2]; filed as activator): 0.54 µM

COc1ccc2[nH]cc(CCNC(C)=O)c2c1 [MELATONIN]
pKi [7]: 7.11 | Activity [1]: < 0.1 equiv

C=CCNC(=O)/C=C/c1c[nH]c2ccc(OC)cc12
CD ([2]; filed as activator): 27.4 µM | Activity [3]: inactive

CCCCCCCn1nc(CCc2c[nH]c3ccc(OC)cc23)oc1=O
Activity [1]: 2.1 equiv

COc1ccc2[nH]cc(CCc3n[nH]c(=O)o3)c2c1
pKi [7]: < 7.00 | inhibition (Cricetinae): 5% | Activity [1]: 2.7 equiv | Papp [11]: < 20 nm/s

COc1ccc2[nH]cc(CCc3nn(CCCc4ccccc4)c(=O)o3)c2c1
Activity [1]: 2.7 equiv

COc1ccc2[nH]cc(CC(C)c3n[nH]c(=O)o3)c2c1 (centres undefined)
CD [2]: > 30 µM | Activity [3]: inactive

COc1ccc2[nH]cc(CCc3nn(CC4CCCC4)c(=O)o3)c2c1
Activity [1]: 2.8 equiv

C#CCNC(=O)/C=C/c1c[nH]c2ccc(OC)cc12
CD ([2]; filed as activator): 1.76 µM | Activity [3]: Active

COc1ccc2[nH]cc(CCc3nn(CC4CCC4)c(=O)o3)c2c1
Activity [1]: 2.2 equiv

COc1ccc2c(c1)C(/C=C/c1n[nH]c(=O)o1)=CCC2
CD [2]: > 30 µM

From ChEMBL document CHEMBL4765258 (Eur J Med Chem, 2020)
